Measured values as given in patent US12495801B2, “Bacillus subtilis JCK-1398 strain inducing resistance in various plants, and composition and method for controlling pine wilt disease by using same” (Republic of Korea (National institute of forest science), priority 2020, dated 2025).

What was measured:
Format in all cases: in vivo
[1] = test system: Xanthomonas euvesicatoria; test: Control effect against bacterial spot on chili pepper plants; conditions: control agrochemical, 1,000-fold diluted solution
Description: To 500-fold and 5,000-fold diluted solutions of a spray-dried powder of the JCK-1398 strain prepared by the same method as in Example 8 were added the surfactant Tween® 20 (250 μg/ml), and then 8- to 9-leaf stage chili pepper plants (Hungnong Seed, Bultap chili pepper) were treated with the resultant solutions at 20 ml per pot by soil drenching and foliar spraying. Each sample was applied 4 days before inoculation with Xanthomonas euvesicatoria inoculum. As for a control group, the synthetic agrochemical pesticides Sungbocycline wettable powder (oxytetracycline, SUNGBO Chemicals) and Ilpum wettable powder (oxolinic acid 20% WP, Dongbang Agro) each were applied at a predetermined amount (1,000-fold diluted solution), and as for an untreated group, only Tween® 20 (250 μg/ml) was applied in the same manner without chemical agents.
Then, Xanthomonas euvesicatoria was subjected to static culture in TSA at 30° C. for about 48 hours, and then the cells were harvested using 2 ml of sterile water. The inoculum was prepared by diluting the harvested Xanthomonas euvesicatoria to an optical density value of 0.1 at 600 nm through a UV spectrometer. […]
Each treatment was repeated three times, and each experiment was repeated twice. The disease severity was determined using an index of 0 to 6 according to Abbasi, and thus the severity of bacterial spot formed on chili pepper leaves was investigated. […]

[2] = test system: Bursaphelenchus xylophilus; test: Pine wilt disease control by culture, culture filtrate and cell fraction (Example 6); conditions: samples at OD 0.8, 5 ml foliar spray; EB 20 mg/ml by trunk injection
Description: The JCK-1398 strain was cultured by the same method as in Example 4-1 and adjusted to an optical density value of 0.8.
The culture of the JCK-1398 strain was separated into a culture filtrate and a cell fraction by centrifugation (1,300 rpm, 15 min). The precipitated cell fraction was suspended by addition of the same volume of phosphate-buffered saline used before centrifugation. Each pine tree was sufficiently pre-treated with 5 ml of Tween® 20 (250 μg/ml) and then dried for 2 hours, so as to enable each sample (a culture, a culture filtrate, and a cell fraction) to be well adsorbed into leaves. Then, each of the culture, culture filtrate, and cell fraction was dissolved in an aqueous solution containing Tween® 20 (250 μg/ml) to an optical density value of 0.8, and then placed in a fine sprayer and each pine tree was foliar-sprayed with 5 ml of each sample. The nematicidal substance emamectin benzoate as a control group was dissolved in an aqueous solution containing 10% methanol to 20 mg/ml, followed by trunk injection.

[3] = test system: Bursaphelenchus xylophilus; test: Pine wilt disease field tests, Pinus densiflora adult trees aged 15 years (Example 9); conditions: for Disease severity (%): adult trees, JCK-1398 = 50-fold diluted spray-dried powder foliar spray, EB = A-Pharm trunk injection; for Control value (%): foliar spray, EB by trunk injection
Description: Based on the above results, the field test was additionally performed using Pinus densiflora adult trees aged 15 years (root diameter: 8-11 cm, height: 6-8 m) in order to investigate the control effect of the Bacillus subtilis JCK-1398 strain against pine wilt disease in adult trees. The field test was performed twice in 2018 (first field test) and 2019 (second field test). In the first field test, a spray-dried powder of a culture of the JCK-1398 strain (prepared by the same method as in Example 8) was used, and in the second field test, a spray-dried powder of a culture of the JCK-1398 strain was formulated into JCK-1398 20% SC (emulsion) before use. The JCK-1398 20% SC formulation was formulated with a composition of a JCK-1398 spray-dried powder (20.0%), CR-NF 135B (4.5%), xanthan gum (0.03%), a defoamer (0.1%), and water (75.37%).
The spray-dried powder of the culture of the JCK-1398 strain and the JCK-1398 20% SC formulation were diluted 50-fold and 2000-fold, respectively, in an aqueous solution containing 250 μg/ml Tween® 20, and then placed in a sprayer, and each pine tree was foliar-sprayed with about 1 L of each diluted solution. The treatment by foliar spraying was performed twice at an interval of 1 month. One week after each second treatment, each pine tree was inoculated, by trunk injection, with Bursaphelenchus xylophilus at 20,000 nematodes in the first field test and at 10,000 nematodes in the second field test. For a control group, A-Pharm (emamectin benzoate 2.15%, emulsion, Syngenta) was applied at 1 ml per diameter at breast by trunk injection, and the A-Pharm was applied once 1 week before the inoculation with Bursaphelenchus xylophilus. The untreated group was treated with only 250 μg/ml Tween@ 20 without chemical agents in the same manner. The results are shown in FIGS. 7A to 7C and Tables 13 and 14.

[4] = test system: Bursaphelenchus xylophilus; test: Pine wilt disease seedling test of aerial spraying formulations (Example 11); conditions: EB control group; 40 days after inoculation
Description: In order to investigate the control effects of the Bacillus subtilis JCK-1398 strain against pine wilt disease through aerial spraying in adult trees, a novel formulation was prepared. The JCK-1398 10% SC formulation was formulated with a composition of a spray-dried powder of JCK-1398 (10.0%), CR-NF 135B (3.0%), xanthan gum (0.01%), a defoamer (0.1%), propylene glycol (5.0%), sodium benzoate (0.2%), and water (81.69%).
The JCK-1398 10% SC formulation and the JCK-1398 20% SC formulation (existing formulation, Example 9) each were prepared into 10-fold, 100-fold, and 500-fold diluted solutions, and each pine tree aged 3 years was foliar-sprayed with 100 μl ( 1/50 of the existing treatment amount) of each of the diluted solutions twice at an interval of 7 days, 2 weeks and 1 week before inoculation. Last, the inoculation with Bursaphelenchus xylophilus was performed 7 days after the second treatment with the diluted solution by the same method as in Example 4-4, and the degree of wilting was determined 40 days after the inoculation with Bursaphelenchus xylophilus.

CCn1cc(C(=O)O)c(=O)c2cc3c(cc21)OCO3 [Oxolinic acid, oxolinic acid]
Control value (%) ([1]; Folia spraying): 27.1%

CN(C)[C@@H]1C(O)=C(C(N)=O)C(=O)[C@@]2(O)C(O)=C3C(=O)c4c(O)cccc4[C@@](C)(O)[C@H]3[C@H](O)[C@@H]12 [Oxytetracyclin, oxytetracycline]
Control value (%) ([1]; Soil drenching): 20.8%

emamectin benzoate [EB]
Control value (%) [2]: 97.0%
Disease severity (%) ([3]; 1 Month after inoculation): 0%
Disease severity (%) ([3]; 2 Months after inoculation): 1%
Disease severity (%) ([3]; 3 Months after inoculation): 2.5%
Disease severity (%) ([3]; 4 Months after inoculation): 7.5%
Disease severity (%) ([3]; 5 Months after inoculation): 7.5%
Disease severity (%) ([3]; 6 Months after inoculation): 10%
Control value (%) ([3]; 2018-Year field test, powder 50-fold diluted, 20,000 nematodes): 86.2%
Control value (%) ([3]; 2019-Year field test, 20% SC 2000-fold diluted, 10,000 nematodes): 75%
Control value (%) [4]: 100.0%
